Laboratory results taken from patent publication US8921389B2, “Naphthyridine derivatives as inhibitors of hypoxia inducible factor (HIF) hydroxylase” (Fibrogen, Inc., priority 2011, dated 2014).

target: HIF-PH2 (EGLN1) (Homo sapiens (Human), UniProt Q9GZT9); assay: HIF-PH assay (14CO2 capture, peptide-dependent turnover); format: biochemical; conditions: enzyme inhibition against HIF-PH2; peptide-dependent percent turnover
Source text: Ketoglutaric acid α-[1-^14C]-sodium salt, alpha-ketoglutaric acid sodium salt, and HPLC purified peptide may be obtained from commercial sources, e.g., Perkin-Elmer (Wellesley Mass.), Sigma-Aldrich, and SynPep Corp. (Dublin Calif.), respectively. […] For example, a HIF peptide for use in the HIF-PH assay is [methoxycoumarin]-[…]-amide. HIF-PH, e.g., HIF-PH2 (EGLN1), can be expressed in, e.g., insect Hi5 cells, and partially purified, e.g., through a SP ion exchange chromatography column. […] Reactions are initiated by addition of HIF-PH enzyme.
The peptide-dependent percent turnover is calculated by subtracting percent turnover in the absence of peptide from percent turnover in the presence of substrate peptide. Percent inhibition and IC50 are calculated using peptide-dependent percent turnover at given inhibitor concentrations. Calculation of IC50 values for each inhibitor is conducted using GraFit software (Erithacus Software Ltd., Surrey UK).
Representative compounds of the disclosure were analyzed using the HIF-PH assay described above.

Chain of HIF-PH2 (EGLN1) (Q9GZT9 whole entry): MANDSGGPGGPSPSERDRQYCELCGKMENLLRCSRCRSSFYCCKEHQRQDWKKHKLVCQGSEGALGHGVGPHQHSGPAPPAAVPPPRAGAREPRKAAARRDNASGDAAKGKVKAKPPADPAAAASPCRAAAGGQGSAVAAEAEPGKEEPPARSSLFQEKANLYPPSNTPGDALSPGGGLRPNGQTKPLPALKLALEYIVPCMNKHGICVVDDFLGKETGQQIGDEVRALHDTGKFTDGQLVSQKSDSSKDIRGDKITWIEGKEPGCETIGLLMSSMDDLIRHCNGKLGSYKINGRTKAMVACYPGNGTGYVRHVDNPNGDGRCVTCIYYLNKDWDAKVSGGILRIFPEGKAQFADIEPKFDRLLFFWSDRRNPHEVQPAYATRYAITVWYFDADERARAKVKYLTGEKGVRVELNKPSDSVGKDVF

Structure (SMILES) | IC50
CN(CCNC(=O)c1nc(-c2cccnc2)c2c(cc(-c3ccccc3)c(=O)n2Cc2ccccc2)c1O)S(C)(=O)=O [Example 134, 1-Benzyl-5-hydroxy-2-oxo-3-phenyl-8-pyridin-3-yl-1,2-dihydro-[1,7]naphthyridine-6-carboxylic acid [2-(methanesulfonyl-methyl-amino)-ethyl]amide] | 200 µM
O=C(N[C@H](Cc1ccccc1)C(=O)O)c1ncc2c(cc(-c3ccccc3)c(=O)n2Cc2ccccc2)c1O [Example 152, (R)-2-[(1-Benzyl-5-hydroxy-2-oxo-3-phenyl-1,2-dihydro-[1,7]naphthyridine-6-carbonyl)-amino]-3-phenyl-propionic acid] | 103 µM
O=C(O)CCCCNC(=O)c1nc(-c2cccnc2)c2c(cc(-c3ccccc3)c(=O)n2Cc2ccccc2)c1O [Example 163, 5-[(1-Benzyl-5-hydroxy-2-oxo-3-phenyl-8-pyridin-3-yl-1,2-dihydro-[1,7]naphthyridine-6-carbonyl)-amino]-pentanoic acid] | 200 µM
C[C@@H](c1ccccc1)n1c(=O)c(-c2ccccc2)cc2c(O)c(C(=O)NCCC(=O)O)nc(-c3cccnc3)c21 [Example 175, (S)-3-{[5-Hydroxy-2-oxo-3-phenyl-1-(1-phenyl-ethyl)-8-pyridin-3-yl-1,2-dihydro-[1,7]naphthyridine-6-carbonyl]-amino}-propionic acid] | 200 µM
C[C@H](c1ccccc1)n1c(=O)c(-c2ccccc2)cc2c(O)c(C(=O)NCCC(=O)O)nc(-c3cccnc3)c21 [Example 176, (R)-3-{[5-Hydroxy-2-oxo-3-phenyl-1-(1-phenyl-ethyl)-8-pyridin-3-yl-1,2-dihydro-[1,7]naphthyridine-6-carbonyl]-amino}-propionic acid] | 196 µM
Cc1ncccc1-c1nc(C(=O)NCCC(=O)O)c(O)c2cc(-c3ccccc3)c(=O)n(Cc3ccccc3)c12 [Example 178, 3-{[1-Benzyl-5-hydroxy-8-(2-methyl-pyridin-3-yl)-2-oxo-3-phenyl-1,2-dihydro-[1,7]naphthyridine-6-carbonyl]-amino}-propionic acid] | 199 µM
Cc1ccc(-c2nc(C(=O)NCCC(=O)O)c(O)c3cc(-c4ccccc4)c(=O)n(Cc4ccccc4)c23)cn1 [Example 179, 3-{[1-Benzyl-5-hydroxy-8-(6-methyl-pyridin-3-yl)-2-oxo-3-phenyl-1,2-dihydro-[1,7]naphthyridine-6-carbonyl]-amino}-propionic acid] | 176 µM
O=C(O)CCNC(=O)c1nc(-c2ccc(C(F)(F)F)nc2)c2c(cc(-c3ccccc3)c(=O)n2Cc2ccccc2)c1O [Example 180, 3-{[1-Benzyl-5-hydroxy-2-oxo-3-phenyl-8-(6-trifluoromethyl-pyridin-3-yl)-1,2-dihydro-[1,7]naphthyridine-6-carbonyl]-amino}-propionic acid] | 107 µM
CC(C)(CNC(=O)c1nc(-c2cccnc2)c2c(cc(-c3ccccc3)c(=O)n2Cc2ccccc2)c1O)C(=O)O [Example 191, 3-[(1-Benzyl-5-hydroxy-2-oxo-3-phenyl-8-pyridin-3-yl-1,2-dihydro-[1,7]naphthyridine-6-carbonyl)-amino]-2,2-dimethyl-propionic acid] | 200 µM
O=C(O)CCNC(=O)c1nc(-c2nccs2)c2c(cc(-c3ccccc3)c(=O)n2Cc2ccccc2)c1O [Example 195, 3-[(1-Benzyl-5-hydroxy-2-oxo-3-phenyl-8-thiazol-2-yl-1,2-dihydro-[1,7]naphthyridine-6-carbonyl)-amino]-propionic acid] | 138 µM
O=C(O)CCNC(=O)c1nc(-c2ccncc2)c2c(cc(-c3ccccc3)c(=O)n2CC2CCCCC2)c1O [Example 198, 3-[(1-Cyclohexylmethyl-5-hydroxy-2-oxo-3-phenyl-8-pyridin-4-yl-1,2-dihydro-[1,7]naphthyridine-6-carbonyl)-amino]-propionic acid] | 200 µM
O=C(O)CCNC(=O)c1nc(-c2cscn2)c2c(cc(-c3ccccc3)c(=O)n2Cc2ccccc2)c1O [Example 202, 3-[(1-Benzyl-5-hydroxy-2-oxo-3-phenyl-8-thiazol-4-yl-1,2-dihydro-[1,7]naphthyridine-6-carbonyl)-amino]-propionic acid] | 200 µM
O=C(O)CCNC(=O)c1nc(-c2cccnn2)c2c(cc(-c3ccccc3)c(=O)n2Cc2ccccc2)c1O [Example 203, 3-[(1-Benzyl-5-hydroxy-2-oxo-3-phenyl-8-pyridazin-3-yl-1,2-dihydro-[1,7]naphthyridine-6-carbonyl)-amino]-propionic acid] | 200 µM
O=C(O)CCNC(=O)c1nc(-c2cccnc2)c2c(=O)n(Cc3ccccc3)ccc2c1O [Example 206, 3-[(7-Benzyl-4-hydroxy-8-oxo-1-pyridin-3-yl-7,8-dihydro-[2,7]naphthyridine-3-carbonyl)-amino]-propionic acid] | 200 µM
